Laboratory results reported in publication PMC6911004, “Fragment-based screening identifies molecules targeting the substrate-binding ankyrin repeat domains of tankyrase” (Scientific Reports, 2019).

Experiments:
Format in all cases: binding
[1] = target: T1, TNKS2 ARC4 arginine cradle (WFE591/593/598AAA) (Homo sapiens, UniProt Q9H2K2, E598A/F593A/W591A); test: WaterLOGSY NMR with mutant ARC
T1 construct: The cell was filled with TNKS2 ARC4 (488–649); His6-GST; made in house; host or cells: E. coli
Description: (§1) We used three previously designed TNKS2 ARC4 mutant variants[4] to explore potential binding determinants for fragment 9. A WFE591/593/598AAA triple-mutation abrogates three key residues in the “arginine cradle”; YY536/569AA truncates two tyrosine residues that form the “glycine sandwich”, and L560W introduces a bulky residue into the “central patch” that sterically clashes with the TBM peptide (see Fig. 5A,B for locations of the mutated residues). We tested binding of compound 9 to the wild-type and mutant ARCs by ligand-observed NMR, using the relaxation-edited assay (Fig. 5C, Table 4). […] Binding was impaired but not abolished for the “central patch” mutant variant (L560W).
(§2) Fragments were dispensed in duplicate into a 384-well plate (250 nL, 100 mM stock in DMSO). Wells were backfilled with DMSO (2.25 μL). Tankyrase ARC protein (47.5 μL in 25 mM HEPES-NaOH pH7.5, 100 mM NaCl, 2 mM TCEP, 10% D2O; 20 μM final protein concentration in the assay) was added to the samples containing protein; buffer only (47.5 μL) was added to the compound-only samples. Solutions were transferred to 1.7 mm NMR tubes using a Gilson liquid handling system. ^1H NMR spectra were recorded, with the DMSO signal dampened. The bulk water signal at 4.7 ppm was selectively inverted. Data were processed using Bruker Topspin 3.14[66].

[2] = target: T2, TNKS2 ARC4 central patch (L560W) (Homo sapiens, UniProt Q9H2K2, L560W); test: WaterLOGSY NMR with mutant ARC
T2 construct: TNKS2 ARC4 (488–649); His6-GST; made in house; host or cells: E. coli BL21-CodonPlus (DE3)-RIL
Description: as §1, §2

[3] = target: T3, TNKS2 ARC4 aromatic glycine sandwich (YY536/569AA) (Homo sapiens, UniProt Q9H2K2, Y536A/Y569A); test: WaterLOGSY NMR with mutant ARC
T3 construct: TNKS2 ARC4 (488–649); His6-GST; made in house; host or cells: E. coli BL21-CodonPlus (DE3)-RIL
Description: as §1, §2

[4] = target: T4, TNKS2 ARC1 (20–178) (Homo sapiens, UniProt Q9H2K2); test: T2 relaxation-edited ligand-observed NMR assay
T4 construct: TNKS2 ARC1 (20–178); His6-GST; made in house; host or cells: E. coli
Description: The anticipated functional redundancy between ARCs and the existence of two tankyrase paralogues will require efficient substrate binding antagonists to ideally bind all TBM-binding ARCs of both TNKS and TNKS2. […] We tested binding of compound 9 to all TNKS and TNKS2 ARCs using the relaxation-edited NMR assay (Fig. 4E, Table 3). Compound 9 bound all ARCs, with the exception of TNKS2 ARC1. Given the invariant residue infrastructure of the peptide-binding pocket in ARC1 of TNKS and TNKS2, this observation is difficult to reconcile with available structural information. […]
Fragments were dispensed in duplicate into a 384-well plate (250 nL, 100 mM stock in DMSO). […] Solutions were transferred to 1.7 mm NMR tubes using a Gilson liquid handling system. ^1H NMR spectra were recorded, with the DMSO and water signals dampened. […] The average integral for all peaks between 6.0–10.0 ppm was calculated, and the difference between compound-only and compound-plus-protein samples was compared. […] For competitive experiments, 3BP2 16-mer peptide (100 μM) was added, and the spectra were recorded and processed as above. The variability in signal reduction in the relaxation-edited experiment was previously determined as approximately ± 10% (Liu et al., unpublished observations).

[5] = target: T5, TNKS2 ARC5 (Homo sapiens, UniProt Q9H2K2); test: T2 relaxation-edited ligand-observed NMR assay; conditions: DSF hit validation
T5 construct: followed by TNKS2 ARC5 (1 μL, 100 μM stock); His6-GST; made in house; host or cells: E. coli
Description: 39 hits from the DSF screen were suitable for follow-up by ligand-observed NMR methods. We re-purchased fragments and performed T2 relaxation-edited (CPMG-edited) and waterLOGSY experiments for each fragment with TNKS2 ARC5. We explored saturation transfer difference (STD) NMR, also using TNKS2 ARC5, but the assay was not sensitive enough to produce a reliable binding signal, likely due to the relatively small size of a single ARC protein (data not shown). High ligand concentrations were required to achieve sufficient signal, which in turn could lead to false-positive hits due to non-specific binding.
Using the relaxation-edited assay, we tested each fragment in three independent measurements (Fig. 2C), unless we obtained two negative results (non-binding) in the first two experiments. […] As a negative NOE for the compound-only sample could indicate aggregation, we flagged these compounds as potentially problematic. We identified 14 fragments that bound to TNKS2 ARC5 by both relaxation-edited and waterLOGSY methods (0.78% hit rate). We next tested whether binding of these fragments occurred competitively with the 3BP2 TBM peptide, and also if they bound to TNKS2 ARC4, as competition with peptide binders at various different ARCs will be a prerequisite for an efficient substrate binding antagonist. Three fragments (1, 2, 3) bound to both TNKS2 ARC4 and ARC5 and were competitive with the TBM peptide (0.16% hit rate) (Fig. 2E). Three further fragments also bound to both ARCs, but were not TBM competitive by NMR.
Fragments were dispensed in duplicate into a 384-well plate (250 nL, 100 mM stock in DMSO). Wells were backfilled with DMSO (2.25 μL). Tankyrase ARC protein (47.5 μL in 25 mM HEPES, pH 7.5, 100 mM NaCl, 2 mM TCEP, 10% D2O; 20 μM final protein concentration in the assay) was added to the ‘protein’ samples; buffer only (47.5 μL) was added to the ‘compound-only’ samples. Solutions were transferred to 1.7 mm NMR tubes using a Gilson liquid handling system. ^1H NMR spectra were recorded, with the DMSO and water signals dampened. A relaxation spin filter was applied at 400 ms[65]. Data were processed using Bruker Topspin 3.14. Lines were broadened with LB = 3.0, and the baseline was corrected between 6.0–10.0 ppm. The average integral for all peaks between 6.0–10.0 ppm was calculated, and the difference between compound-only and compound-plus-protein samples was compared. A reduction in signal integrals of ≥15% was classified as a hit. For competitive experiments, 3BP2 16-mer peptide (100 μM) was added, and the spectra were recorded and processed as above. The variability in signal reduction in the relaxation-edited experiment was previously determined as approximately ± 10% (Liu et al., unpublished observations).

## O=C(NCc1ccco1)c1ccc2nccnc2c1 [compound 9]
[1]
  waterLOGSY: negative NOE
[2]
  waterLOGSY: positive NOE
[3]
  waterLOGSY: positive NOE
[4]
  T2 relaxation-edited: reduction of signal integrals: 0%

## O=C(NCc1ccco1)c1ccc(F)cc1 [compound 3]
[5]; relaxation-edited and waterLOGSY
  binding to TNKS2 ARC5 by ligand-observed NMR, in words: bound
[5]; ARC used for competition not given
  competition with the 3BP2 TBM peptide by relaxation-edited NMR: competitive
